These results are taken from patent publication US11192907B2, “Aminopeptidase A inhibitors and pharmaceutical compositions comprising the same” (QUANTUM GENOMICS, priority 2018, dated 2021).

Assay [1] addresses T1, recombinant mouse APA (Mus musculus, UniProt P16406).
T1 sequence (P16406 1-945): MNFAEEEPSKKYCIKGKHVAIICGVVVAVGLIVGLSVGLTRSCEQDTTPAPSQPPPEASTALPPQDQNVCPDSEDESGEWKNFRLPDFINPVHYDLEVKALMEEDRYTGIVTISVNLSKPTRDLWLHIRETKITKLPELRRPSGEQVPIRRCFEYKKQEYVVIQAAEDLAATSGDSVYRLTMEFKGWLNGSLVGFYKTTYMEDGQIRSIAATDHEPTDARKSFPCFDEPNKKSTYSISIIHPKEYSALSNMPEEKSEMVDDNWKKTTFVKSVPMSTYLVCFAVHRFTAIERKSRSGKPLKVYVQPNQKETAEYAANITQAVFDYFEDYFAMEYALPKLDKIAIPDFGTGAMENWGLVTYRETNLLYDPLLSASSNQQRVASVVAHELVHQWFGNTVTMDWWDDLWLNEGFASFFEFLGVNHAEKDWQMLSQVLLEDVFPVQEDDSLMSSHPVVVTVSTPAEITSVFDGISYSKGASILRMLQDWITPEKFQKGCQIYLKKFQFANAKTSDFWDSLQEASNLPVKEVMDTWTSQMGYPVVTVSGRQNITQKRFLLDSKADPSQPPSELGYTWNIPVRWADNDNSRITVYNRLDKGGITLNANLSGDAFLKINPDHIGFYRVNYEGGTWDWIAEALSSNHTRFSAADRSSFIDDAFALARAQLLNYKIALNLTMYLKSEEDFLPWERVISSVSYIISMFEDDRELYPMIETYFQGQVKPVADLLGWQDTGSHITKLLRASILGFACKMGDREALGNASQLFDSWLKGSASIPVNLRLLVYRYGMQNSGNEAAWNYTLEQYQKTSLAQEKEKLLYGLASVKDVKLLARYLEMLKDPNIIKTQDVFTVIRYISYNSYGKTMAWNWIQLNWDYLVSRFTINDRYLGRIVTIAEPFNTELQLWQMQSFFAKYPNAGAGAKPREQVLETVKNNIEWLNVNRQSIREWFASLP
As to the kind of experiment: Measurement of APA activity in vitro (GluβNa hydrolysis, microplate). The assay is classed as biochemical. The settings on record: 200 μM Glu-βNa, pH 7.4, 37° C., read-out: In vitro inhibition of aminopeptidase A, IC50 classification. The text has this:
In vitro, in the presence of calcium ions, APA hydrolyses a synthetic substrate α-L-glutamyl-β-naphthylamide (GluβNa) to glutamate and β-naphthylamine (βNa). A diazotation reaction in acidic medium makes it possible to reveal the β-naphthylamine by formation of a violet-coloured complex: spectrophotometric measurement then makes it possible to know the amount of complex formed and, by reference to a standard curve produced with increasing concentrations of β-naphthylamine, to deduce the enzymatic activity of the sample.
The reaction takes place at pH 7.4 in 50 mM tris-HCl buffer, in the presence of calcium (4 mM CaCl2)); recombinant mouse APA is incubated at 37° C. in the presence of the substrate (200 μM Glu-βNa) and in the presence or absence of various concentrations of the inhibitor to be tested, in a final volume of 100 μL. The reaction is stopped by adding 10 μL of 3N HCl. A standard curve of β-naphthylamine was prepared in parallel by diazotizing increasing concentrations (up to 0.2 mM) of 2-naphthylamine in 0.1 N HCl.
The following are added to each well: 25 μL of sodium nitrite (NaNO2) (mix, wait 5 minutes at room temperature), 50 μL of ammonium sulfamate (mix, wait 5 minutes at room temperature), then add 25 μL of N-(1-naphthyl) ethylenediamine dihydrochloride (mix, wait for stabilization of the violet colour for approximately 30 minutes at 37° C.).
The absorbance is then measured at 540 nm.

The subject of assay [2] is brain APA. Conditions: central infusions, cited from earlier work.
For assay [3] the following is noted: acute oral, 15 to 150 mg/kg, conscious hypertensive DOCA-salt rats and SHR rats; cited from earlier work.

With `N[C@H](CS)CCS(=O)(=O)O` [EC33, (S)-3 amino-4-mercapto-butylsulfonic acid], in assay [1], the IC50 – broadly, the concentration that inhibits the measured activity by half – is 0.3 to 10 µM. Besides, the “effect on BP” value in assay [2] (several experimental models of hypertension) was “lower BP”. Moreover, the “effect on brain APA activity” value in assay [2] is reported as “inhibit brain APA activity”.
As to `N[C@@H](CCS(=O)(=O)O)CSSC[C@@H](N)CCS(=O)(=O)O` [RB150], the “effect on BP” value in assay [3] is “dose-dependent decrease in BP”.
